± gives the expanded uncertainty stated by the source.
Conditions: Liquid, Vibrating tube method

CC(C)(C)O [2-methylpropan-2-ol]
Conditions | mass density [kg/m3]
303.15 K, 99 kPa | 775.3 ± 0.8
303.15 K, 298 kPa | 775.5 ± 0.8
303.15 K, 499 kPa | 775.7 ± 0.8
303.15 K, 898 kPa | 776.1 ± 0.8
303.15 K, 1002 kPa | 776.2 ± 0.8
303.15 K, 2007 kPa | 777.1 ± 0.8
303.15 K, 3007 kPa | 778.1 ± 0.8
303.15 K, 4999 kPa | 780 ± 0.8
303.15 K, 7003 kPa | 781.9 ± 0.8
303.15 K, 8992 kPa | 783.7 ± 0.8
303.15 K, 10005 kPa | 784.6 ± 0.8
303.15 K, 11999 kPa | 786.3 ± 0.8
308.15 K, 97 kPa | 770.2 ± 0.8
308.15 K, 298 kPa | 770.4 ± 0.8
308.15 K, 500 kPa | 770.6 ± 0.8
308.15 K, 897 kPa | 771 ± 0.8
308.15 K, 1002 kPa | 771.1 ± 0.8
308.15 K, 2009 kPa | 772.1 ± 0.8
308.15 K, 3000 kPa | 773.1 ± 0.8
308.15 K, 5006 kPa | 775.1 ± 0.8
308.15 K, 9006 kPa | 778.8 ± 0.8
308.15 K, 10007 kPa | 779.7 ± 0.8
308.15 K, 12005 kPa | 781.5 ± 0.8
308.15 K, 15021 kPa | 784.1 ± 0.8
308.15 K, 19998 kPa | 788.2 ± 0.8
308.15 K, 22003 kPa | 789.8 ± 0.8
308.15 K, 24990 kPa | 792.2 ± 0.9
308.15 K, 28006 kPa | 794.5 ± 0.9
308.15 K, 30005 kPa | 796 ± 0.9
308.16 K, 7005 kPa | 777 ± 0.8
308.16 K, 18006 kPa | 786.6 ± 0.8
313.15 K, 99 kPa | 764.8 ± 0.8
313.15 K, 298 kPa | 765 ± 0.8
313.15 K, 502 kPa | 765.2 ± 0.8
313.15 K, 904 kPa | 765.7 ± 0.8
313.15 K, 1009 kPa | 765.8 ± 0.8
313.15 K, 2016 kPa | 766.8 ± 0.8
313.15 K, 3006 kPa | 767.8 ± 0.8
313.15 K, 5010 kPa | 769.9 ± 0.8
313.15 K, 7006 kPa | 771.8 ± 0.8
313.15 K, 9005 kPa | 773.7 ± 0.8
313.15 K, 10007 kPa | 774.7 ± 0.8
313.15 K, 12005 kPa | 776.5 ± 0.8
313.15 K, 15005 kPa | 779.2 ± 0.8
313.15 K, 18003 kPa | 781.8 ± 0.8
313.15 K, 20015 kPa | 783.5 ± 0.8
313.15 K, 22002 kPa | 785.1 ± 0.9
313.15 K, 25007 kPa | 787.5 ± 0.9
313.15 K, 28002 kPa | 789.9 ± 0.9
313.15 K, 30000 kPa | 791.4 ± 0.9
313.15 K, 33001 kPa | 793.7 ± 0.9
313.15 K, 33012 kPa | 793.6 ± 0.9
313.15 K, 34006 kPa | 794.4 ± 0.9
313.15 K, 35008 kPa | 795.1 ± 0.9
313.15 K, 38012 kPa | 797.2 ± 0.9
313.15 K, 40002 kPa | 798.6 ± 0.9
313.15 K, 42007 kPa | 800 ± 0.9
313.15 K, 44997 kPa | 802 ± 0.9
313.16 K, 32001 kPa | 792.9 ± 0.9
318.15 K, 100 kPa | 759.4 ± 0.8
318.15 K, 298 kPa | 759.6 ± 0.8
318.15 K, 498 kPa | 759.8 ± 0.8
318.15 K, 901 kPa | 760.3 ± 0.8
318.15 K, 1006 kPa | 760.4 ± 0.8
318.15 K, 2001 kPa | 761.5 ± 0.8
318.15 K, 3003 kPa | 762.6 ± 0.8
318.15 K, 5002 kPa | 764.7 ± 0.8
318.15 K, 7005 kPa | 766.7 ± 0.8
318.15 K, 8999 kPa | 768.7 ± 0.8
318.15 K, 10002 kPa | 769.7 ± 0.8
318.15 K, 11999 kPa | 771.6 ± 0.8
318.15 K, 15010 kPa | 774.4 ± 0.8
318.15 K, 17998 kPa | 777 ± 0.8
318.15 K, 20006 kPa | 778.8 ± 0.8
318.15 K, 21999 kPa | 780.5 ± 0.9
318.15 K, 24994 kPa | 782.9 ± 0.9
318.15 K, 28005 kPa | 785.4 ± 0.9
318.15 K, 30001 kPa | 787 ± 0.9
318.15 K, 32001 kPa | 788.5 ± 0.9
318.15 K, 32993 kPa | 789.3 ± 0.9
318.15 K, 33002 kPa | 789.3 ± 0.9
318.15 K, 34010 kPa | 790 ± 0.9
318.15 K, 35001 kPa | 790.8 ± 0.9
318.15 K, 38000 kPa | 793 ± 0.9
318.15 K, 40010 kPa | 794.4 ± 0.9
318.15 K, 42021 kPa | 795.9 ± 0.9
318.15 K, 45005 kPa | 797.9 ± 0.9
318.15 K, 47997 kPa | 799.9 ± 0.9
318.15 K, 49998 kPa | 801.3 ± 0.9
318.15 K, 52004 kPa | 802.6 ± 0.9
318.15 K, 55002 kPa | 804.6 ± 0.9
318.15 K, 57994 kPa | 806.5 ± 0.9
318.15 K, 60002 kPa | 807.7 ± 1
323.15 K, 99 kPa | 753.9 ± 0.8
323.15 K, 298 kPa | 754.1 ± 0.8
323.15 K, 502 kPa | 754.4 ± 0.8
323.15 K, 901 kPa | 754.9 ± 0.8
323.15 K, 1004 kPa | 755 ± 0.8
323.15 K, 2003 kPa | 756.1 ± 0.8
323.15 K, 3002 kPa | 757.2 ± 0.8
323.15 K, 5004 kPa | 759.4 ± 0.8
323.15 K, 7002 kPa | 761.5 ± 0.8
323.15 K, 9002 kPa | 763.5 ± 0.8
323.15 K, 10002 kPa | 764.5 ± 0.8
323.15 K, 12000 kPa | 766.5 ± 0.8
323.15 K, 14999 kPa | 769.3 ± 0.8
323.15 K, 17998 kPa | 772.1 ± 0.8
323.15 K, 20000 kPa | 773.9 ± 0.8
323.15 K, 22000 kPa | 775.7 ± 0.9
323.15 K, 25000 kPa | 778.2 ± 0.9
323.15 K, 27995 kPa | 780.7 ± 0.9
323.15 K, 30002 kPa | 782.4 ± 0.9
323.15 K, 32000 kPa | 784 ± 0.9
323.15 K, 33000 kPa | 784.7 ± 0.9
323.15 K, 33001 kPa | 784.7 ± 0.9
323.15 K, 34000 kPa | 785.5 ± 0.9
323.15 K, 35004 kPa | 786.2 ± 0.9
323.15 K, 38000 kPa | 788.5 ± 0.9
323.15 K, 39998 kPa | 790 ± 0.9
323.15 K, 41998 kPa | 791.5 ± 0.9
323.15 K, 45000 kPa | 793.6 ± 0.9
323.15 K, 47996 kPa | 795.7 ± 0.9
323.15 K, 50000 kPa | 797.1 ± 0.9
323.15 K, 51998 kPa | 798.4 ± 0.9
323.15 K, 55006 kPa | 800.5 ± 0.9
323.15 K, 57995 kPa | 802.4 ± 1
323.15 K, 60000 kPa | 803.7 ± 1
328.15 K, 101 kPa | 748.4 ± 0.8
328.15 K, 298 kPa | 748.7 ± 0.8
328.15 K, 499 kPa | 748.9 ± 0.8
328.15 K, 898 kPa | 749.4 ± 0.8
328.15 K, 1005 kPa | 749.5 ± 0.8
328.15 K, 2001 kPa | 750.7 ± 0.8
328.15 K, 3001 kPa | 751.9 ± 0.8
328.15 K, 5001 kPa | 754.1 ± 0.8
328.15 K, 7001 kPa | 756.3 ± 0.8
328.15 K, 9004 kPa | 758.5 ± 0.8
328.15 K, 9999 kPa | 759.5 ± 0.8
328.15 K, 11999 kPa | 761.6 ± 0.8
328.15 K, 15004 kPa | 764.5 ± 0.8
328.15 K, 18006 kPa | 767.4 ± 0.8
328.15 K, 19995 kPa | 769.2 ± 0.9
328.15 K, 22000 kPa | 771 ± 0.9
328.15 K, 24996 kPa | 773.6 ± 0.9
328.15 K, 27998 kPa | 776.2 ± 0.9
328.15 K, 30005 kPa | 777.9 ± 0.9
328.15 K, 32005 kPa | 779.5 ± 0.9
328.15 K, 33023 kPa | 780.3 ± 0.9
328.15 K, 33038 kPa | 780.4 ± 0.9
328.15 K, 34013 kPa | 781.1 ± 0.9
328.15 K, 35004 kPa | 781.9 ± 0.9
328.15 K, 38002 kPa | 784.3 ± 0.9
328.15 K, 40024 kPa | 785.8 ± 0.9
328.15 K, 41999 kPa | 787.2 ± 0.9
328.15 K, 45002 kPa | 789.4 ± 0.9
328.15 K, 47997 kPa | 791.6 ± 0.9
328.15 K, 49992 kPa | 793 ± 0.9
328.15 K, 55000 kPa | 796.4 ± 0.9
328.15 K, 57995 kPa | 798.3 ± 1
328.15 K, 60003 kPa | 799.6 ± 1
328.16 K, 51996 kPa | 794.3 ± 0.9
333.15 K, 103 kPa | 742.8 ± 0.8
333.15 K, 307 kPa | 743.1 ± 0.8
333.15 K, 502 kPa | 743.3 ± 0.8
333.15 K, 915 kPa | 743.8 ± 0.8
333.15 K, 1007 kPa | 744 ± 0.8
333.15 K, 2013 kPa | 745.2 ± 0.8
333.15 K, 3006 kPa | 746.4 ± 0.8
333.15 K, 5002 kPa | 748.8 ± 0.8
333.15 K, 7005 kPa | 751.1 ± 0.8
333.15 K, 9001 kPa | 753.3 ± 0.8
333.15 K, 9999 kPa | 754.3 ± 0.8
333.15 K, 12003 kPa | 756.5 ± 0.8
333.15 K, 15000 kPa | 759.6 ± 0.8
333.15 K, 17995 kPa | 762.5 ± 0.8
333.15 K, 19997 kPa | 764.4 ± 0.9
333.15 K, 21996 kPa | 766.2 ± 0.9
333.15 K, 24994 kPa | 768.9 ± 0.9
333.15 K, 27993 kPa | 771.6 ± 0.9
333.15 K, 30003 kPa | 773.3 ± 0.9
333.15 K, 32004 kPa | 775 ± 0.9
333.15 K, 32850 kPa | 775.7 ± 0.9
333.15 K, 32871 kPa | 775.7 ± 0.9
333.15 K, 34000 kPa | 776.6 ± 0.9
333.15 K, 34990 kPa | 777.4 ± 0.9
333.15 K, 38004 kPa | 779.8 ± 0.9
333.15 K, 39997 kPa | 781.4 ± 0.9
333.15 K, 41998 kPa | 782.9 ± 0.9
333.15 K, 44909 kPa | 785.1 ± 0.9
333.15 K, 48119 kPa | 787.4 ± 0.9

Reference: the NIST ThermoML archive (doi:10.1021/acs.jced.5b00934)
